Test results taken from ChEMBL document CHEMBL1201862, “PubChem BioAssay data set” (2004).
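Grown in 96-well plates, cells were treated for 48 hours with each compound at five concentrations. Insufficient inhibition: endpoint recorded as highest concentration tested. GI50: concentration for 50% inhibition of growth.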 Activity calls are given as the source filed them. Rule as the data show it: active = GI50 up to about 1.1 µM and inactive = higher.

Legend:
Experiment in all cases: DTP human tumour cell line panel, 48 h
786-0 = tested on: 786-0
A498 = tested on: A498
M14 = tested on: M14
MDA-MB-231 = tested on: MDA-MB-231
MDA-MB-435 = tested on: MDA-MB-435
MDA-N = tested on: MDA-N
NCI-H522 = tested on: NCI-H522
NCI/ADR-RES = tested on: NCI/ADR-RES
OVCAR-3 = tested on: OVCAR-3
OVCAR-5 = tested on: OVCAR-5
SF-268 = tested on: SF-268
SF-295 = tested on: SF-295
SF-539 = tested on: SF-539
SK-OV-3 = tested on: SK-OV-3
SN12C = tested on: SN12C
SNB-19 = tested on: SNB-19
T47D = tested on: T47D
U-251 = tested on: U-251
UACC-257 = tested on: UACC-257
NCI-H460 = tested on: NCI-H460

| Structure (SMILES) | GI50 (786-0) | GI50 (A498) | GI50 (M14) | GI50 (MDA-MB-231) | GI50 (MDA-MB-435) | GI50 (MDA-N) | GI50 (NCI-H522) | GI50 (NCI/ADR-RES) | GI50 (OVCAR-3) | GI50 (OVCAR-5) | GI50 (SF-268) | GI50 (SF-295) | GI50 (SF-539) | GI50 (SK-OV-3) | GI50 (SN12C) | GI50 (SNB-19) | GI50 (T47D) | GI50 (U-251) | GI50 (UACC-257) | GI50 (NCI-H460) |
| --- | --- | --- | --- | --- | --- | --- | --- | --- | --- | --- | --- | --- | --- | --- | --- | --- | --- | --- | --- | --- |
| CC(C)Cc1c(C#N)c(C#N)c(N)n1Cc1ccccc1 | > 100 µM (inactive) | > 100 µM (inactive) | > 100 µM (inactive) | > 100 µM (inactive) | > 100 µM (inactive) | > 100 µM (inactive) | > 100 µM (inactive) | > 100 µM (inactive) | > 100 µM (inactive) | > 100 µM (inactive) | > 100 µM (inactive) | > 100 µM (inactive) | > 100 µM (inactive) | > 100 µM (inactive) | > 100 µM (inactive) | > 100 µM (inactive) | > 100 µM (inactive) | > 100 µM (inactive) | > 100 µM (inactive) | – |
| COC(=O)c1c2c(cc3c1CC1(Cc4cc5c(c(C=O)c4C1)CCC5)C3)CCC2 (centres undefined) | 29.4 µM (inactive) | 33.6 µM (inactive) | 22.2 µM (inactive) | 28.4 µM (inactive) | 17.7 µM (inactive) | 34 µM (inactive) | 17.3 µM (inactive) | 40.5 µM (inactive) | 23.3 µM (inactive) | 67.8 µM (inactive) | 50.7 µM (inactive) | 41.4 µM (inactive) | 75.5 µM (inactive) | 42.5 µM (inactive) | – | 44.7 µM (inactive) | 30.7 µM (inactive) | 19.8 µM (inactive) | 21.2 µM (inactive) | 45 µM (inactive) |
| CCC1(CC)C(=O)OC(=O)C1(CC)CC | > 100 µM (inactive) | > 100 µM (inactive) | > 100 µM (inactive) | > 100 µM (inactive) | > 100 µM (inactive) | > 100 µM (inactive) | > 100 µM (inactive) | > 100 µM (inactive) | > 100 µM (inactive) | – | > 100 µM (inactive) | > 100 µM (inactive) | > 100 µM (inactive) | > 100 µM (inactive) | – | > 100 µM (inactive) | > 100 µM (inactive) | > 100 µM (inactive) | – | > 100 µM (inactive) |
| COc1cc2cc(C(=O)N3CC(CCl)c4c3cc(NCCN)c3ccccc43)[nH]c2c(OC)c1OC (centres undefined) | < 0.01 µM (active) | < 0.01 µM (active) | < 0.01 µM (active) | < 0.01 µM (active) | < 0.01 µM (active) | < 0.0105 µM (active) | < 0.01 µM (active) | < 0.01 µM (active) | 0.0123 µM (active) | < 0.01 µM (active) | < 0.01 µM (active) | < 0.01 µM (active) | < 0.01 µM (active) | < 0.0189 µM (active) | < 0.01 µM (active) | < 0.01 µM (active) | < 0.01 µM (active) | < 0.01 µM (active) | 0.0105 µM (active) | < 0.01 µM (active) |
| COC(=O)c1c2c(cc3c1CC1(Cc4cc5c(c(C(C)=O)c4C1)CCCC5)C3)CCCC2 (centres undefined) | > 100 µM (inactive) | > 100 µM (inactive) | > 100 µM (inactive) | > 100 µM (inactive) | 92.5 µM (inactive) | 66.4 µM (inactive) | > 100 µM (inactive) | > 100 µM (inactive) | > 100 µM (inactive) | > 100 µM (inactive) | – | > 100 µM (inactive) | > 100 µM (inactive) | > 100 µM (inactive) | > 100 µM (inactive) | – | > 100 µM (inactive) | > 100 µM (inactive) | 56 µM (inactive) | – |
| CCn1c(=O)c2c3cc(OC(C)=O)ccc3oc2c2ccc(OC(C)=O)cc21 | 56.1 µM (inactive) | 24.8 µM (inactive) | 45.9 µM (inactive) | 48.4 µM (inactive) | 31.1 µM (inactive) | 33.3 µM (inactive) | 39.1 µM (inactive) | 36.9 µM (inactive) | 39.8 µM (inactive) | – | 31.9 µM (inactive) | 19.8 µM (inactive) | 27.5 µM (inactive) | 75.9 µM (inactive) | 43.6 µM (inactive) | 46.9 µM (inactive) | 20.2 µM (inactive) | 32.6 µM (inactive) | 55.1 µM (inactive) | 21.8 µM (inactive) |
| S=C1NCCN1C(=S)Nc1ccccc1 | > 100 µM (inactive) | 32.4 µM (inactive) | 61.5 µM (inactive) | > 100 µM (inactive) | 46.5 µM (inactive) | > 100 µM (inactive) | 60.8 µM (inactive) | > 100 µM (inactive) | 90.8 µM (inactive) | > 100 µM (inactive) | 99.5 µM (inactive) | > 100 µM (inactive) | 46.3 µM (inactive) | > 100 µM (inactive) | > 100 µM (inactive) | – | 40.1 µM (inactive) | > 100 µM (inactive) | 96.2 µM (inactive) | 89.5 µM (inactive) |
| CC1=CC(=O)c2cccc(NC3=NCCO3)c21 | 86.5 µM (inactive) | 38 µM (inactive) | 47.3 µM (inactive) | 32.4 µM (inactive) | 31.6 µM (inactive) | 27.7 µM (inactive) | 69.8 µM (inactive) | 29.5 µM (inactive) | 25.4 µM (inactive) | > 100 µM (inactive) | > 100 µM (inactive) | > 100 µM (inactive) | 46.8 µM (inactive) | > 100 µM (inactive) | 52.7 µM (inactive) | > 100 µM (inactive) | 68.7 µM (inactive) | 64 µM (inactive) | – | 31.3 µM (inactive) |
